In assay [1] the target is T1, Human σ1 Receptor (Homo sapiens, UniProt Q99720).
T1 construct: expressed in transfected cells; host or cells: HEK-293
Put plainly: Human σ1 receptor radioligand assay ([3H](+)-pentazocine, transfected HEK-293 membranes). The following applies: human σ1, [3H](+)-pentazocine 5 nM, binding expressed as Ki, read-out: Binding σ-1. As for the experimental part:
Human σ1 Receptor Radioligand Assay
Transfected HEK-293 membranes (7 μg) were incubated with 5 nM of [^3H](+)-pentazocine in assay buffer containing Tris-HCl 50 mM at pH 8. NBS (non-specific binding) was measured by adding 10 μM haloperidol. The binding of the test compound was measured at either one concentration (% inhibition at 1 or 10 μM) or five different concentrations to determine affinity values (Ki). Plates were incubated at 37° C. for 120 minutes. After the incubation period, the reaction mix was then transferred to MultiScreen HTS, FC plates (Millipore), filtered and plates were washed 3 times with ice-cold 10 mM Tris-HCL (pH 7.4). Filters were dried and counted at approximately 40% efficiency in a MicroBeta scintillation counter (Perkin-Elmer) using EcoScint liquid scintillation cocktail.

Assay [2] addresses T2, Human σ2/TMEM97 receptor (Homo sapiens, UniProt Q5BJF2).
T2 construct: expressed in transfected cells; host or cells: HEK-293
Put plainly: Binding assay to human σ2/TMEM97 receptor ([3H]-DTG, transfected HEK-293 membranes). The following applies: human σ2/TMEM97, [3H]-DTG 10 nM, binding expressed as Ki, read-out: Binding σ-2. As for the experimental part: Binding Assay to Human ρ2/TMEM97 Receptor
Transfected HEK-293 membranes (15 μg) were incubated with 10 nM [^3H]-1,3-Di-o-tolylguanidine ( DTG) in assay buffer containing Tris-HCl 50 mM at pH 8.0. NSB (non-specific binding) was measured by adding 10 μM haloperidol. The binding of the test compound was measured at either one concentration (% inhibition at 1 or 10 μM) or five different concentrations to determine affinity values (Ki). Plates were incubated at 25° C. for 120 minutes. After the incubation period, the reaction mix was transferred to MultiScreen HTS, FC plates (Millipore), filtered and washed 3 times with ice-cold 10 mM Tris-HCL (pH 8.0). Filters were dried and counted at approximately 40% efficiency in a MicroBeta scintillation counter (Perkin-Elmer) using EcoScint liquid scintillation cocktail.

Results on 28 compounds are retold here after patent publication US20240246966A1, “NEW PYRAZOLO[1,5-a] PYRIMIDINE DERIVATIVES AS SIGMA LIGANDS” (ACONDICIONAMIENTO TARRASENSE, priority 2021, published 2024).

T2 sequence (Q5BJF2 whole entry): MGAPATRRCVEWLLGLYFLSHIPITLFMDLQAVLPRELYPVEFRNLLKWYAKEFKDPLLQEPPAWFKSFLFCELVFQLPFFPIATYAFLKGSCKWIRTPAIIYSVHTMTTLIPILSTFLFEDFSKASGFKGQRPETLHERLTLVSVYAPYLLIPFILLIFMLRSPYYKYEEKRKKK
T1 sequence (Q99720 whole entry): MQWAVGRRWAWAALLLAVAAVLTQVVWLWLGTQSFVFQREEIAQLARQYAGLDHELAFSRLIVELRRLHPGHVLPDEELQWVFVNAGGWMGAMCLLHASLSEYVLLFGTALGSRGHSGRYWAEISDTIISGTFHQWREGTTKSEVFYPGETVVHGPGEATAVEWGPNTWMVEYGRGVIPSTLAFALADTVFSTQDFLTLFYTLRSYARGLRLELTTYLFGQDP

As for `Cc1cc(-c2cnn3cc(CN4CCCOCC4)cnc23)ccn1` [Example 24, 4-((3-(2-Methylpyridin-4-yl)pyrazolo[1,5-a]pyrimidin-6-yl)methyl)-1,4-oxazepane], the Ki in assay [1] is 100 to 500 nM; in assay [2] it was over 1000 nM.

Consider `FC(F)(F)c1ncccc1-n1ccc2cc(CN3CCC4(CCOCC4)CC3)cnc21` [Example 45, 9-((1-(2-(Trifluoromethyl)pyridin-3-yl)-1H-pyrrolo[2,3-b]pyridin-5-yl)methyl)-3-oxa-9-azaspiro[5.5]undecane], for which the Ki was under 100 nM in assay [1] and 100 to 500 nM in assay [2].

As to `CCOCC1CCN(Cc2cnc3c(ccn3-c3ccnc(C(F)(F)F)c3)c2)CC1` [Example 40, 5-((4-(Ethoxymethyl)piperidin-1-yl)methyl)-1-(2-(trifluoromethyl)pyridin-4-yl)-1H-pyrrolo[2,3-b]pyridine], the Ki in assay [1] is under 100 nM; in assay [2], 100 to 500 nM.

`FC(F)(F)c1cc(-n2ccc3cc(CN4CCC5(CCOCC5)CC4)cnc32)ccn1` [Example 46, 9-((1-(2-(Trifluoromethyl)pyridin-4-yl)-1H-pyrrolo[2,3-b]pyridin-5-yl)methyl)-3-oxa-9-azaspiro[5.5]undecane]: the Ki in assay [1] and in assay [2] was under 100 nM throughout.

Regarding `Fc1cnccc1-c1cnn2cc(CN3CCCC3)cnc12` [Example 3, 3-(3-Fluoropyridin-4-yl)-6-(pyrrolidin-1-ylmethyl)pyrazolo[1,5-a]pyrimidine], the Ki was under 100 nM in assay [1] and over 1000 nM in assay [2].

With `COC1CCN(Cc2cnc3c(-c4ccnc(C)c4)cnn3c2)CC1` [Example 23, 6-((4-Methoxypiperidin-1-yl)methyl)-3-(2-methylpyridin-4-yl)pyrazolo[1,5-a]pyrimidine], the Ki in assay [1] is 100 to 500 nM; in assay [2], over 1000 nM.

As for `COC1CCN(Cc2cnc3c(-c4ccc(C(F)(F)F)nc4)cnn3c2)CC1` [Example 21, 6-((4-Methoxypiperidin-1-yl)methyl)-3-(6-(trifluoromethyl)pyridin-3-yl)pyrazolo[1,5-a]pyrimidine], the Ki in assay [1] is under 100 nM; in assay [2], over 1000 nM.

For `Clc1cc(-c2cnn3cc(CN4CCC5(CC4)COC5)cnc23)ccn1` [Example 16, 7-((3-(2-Chloropyridin-4-yl)pyrazolo[1,5-a]pyrimidin-6-yl)methyl)-2-oxa-7-azaspiro[3.5]nonane], the Ki is under 100 nM in assay [1] and over 1000 nM in assay [2].

On to `c1cc(-c2cnn3cc(CN4CCCC4)cnc23)ccn1` [Example 2, 3-(Pyridin-4-yl)-6-(pyrrolidin-1-ylmethyl)pyrazolo[1,5-a]pyrimidine], for which the Ki in assay [1] is 100 to 500 nM; in assay [2], over 1000 nM.

Regarding `FC(F)(F)c1ccc(-n2ccc3cc(CN4CC5(CCOCC5)C4)cnc32)cn1` [Example 55, 2-((1-(6-(Trifluoromethyl)pyridin-3-yl)-1H-pyrrolo[2,3-b]pyridin-5-yl)methyl)-7-oxa-2-azaspiro[3.5]nonane], the figures for the Ki in assay [1] and in assay [2] were under 100 nM and 100 to 500 nM, respectively.

For `FC(F)(F)c1cc(-c2cnn3cc(CN4CCC5(CCOCC5)CC4)cnc23)ccn1` [Example 32, 9-((3-(2-(Trifluoromethyl)pyridin-4-yl)pyrazolo[1,5-a]pyrimidin-6-yl)methyl)-3-oxa-9-azaspiro[5.5]undecane], the Ki was under 100 nM in assay [1] and 100 to 500 nM in assay [2].

On to `COCC1CCN(Cc2cnc3c(ccn3-c3cccnc3C(F)(F)F)c2)CC1` [Example 44, 5-((4-(Methoxymethyl)piperidin-1-yl)methyl)-1-(2-(trifluoromethyl)pyridin-3-yl)-1H-pyrrolo[2,3-b]pyridine], for which the Ki in assay [1] is under 100 nM; in assay [2], 100 to 500 nM.

Turning to `FC(F)(F)c1cc(-n2ccc3cc(CN4CCCOCC4)cnc32)ccn1` [Example 50, 4-((1-(2-(Trifluoromethyl)pyridin-4-yl)-1H-pyrrolo[2,3-b]pyridin-5-yl)methyl)-1,4-oxazepane], the Ki in assay [1] was under 100 nM; in assay [2], over 1000 nM.

Turning to `FC(F)(F)c1cc(-c2cnn3cc(CN4CCC5(CC4)COC5)cnc23)ccn1` [Example 9, 7-((3-(2-(Trifluoromethyl)pyridin-4-yl)pyrazolo[1,5-a]pyrimidin-6-yl)methyl)-2-oxa-7-azaspiro[3.5]nonane], the Ki in assay [1] was under 100 nM; in assay [2], over 1000 nM.

Regarding `OCC1(CO)CCN(Cc2cnc3c(-c4ccnc(C(F)(F)F)c4)cnn3c2)CC1` [Example 59, (1-((3-(2-(Trifluoromethyl)pyridin-4-yl)pyrazolo[1,5-a]pyrimidin-6-yl)methyl)piperidine-4,4-diyl)dimethanol], the Ki in assay [1] was under 100 nM; in assay [2] it was over 1000 nM.

On to `COc1ncccc1-c1cnn2cc(CN3CCCC3)cnc12` [Example 4, 3-(2-Methoxypyridin-3-yl)-6-(pyrrolidin-1-ylmethyl)pyrazolo[1,5-a]pyrimidine], for which the Ki in assay [1] was under 100 nM; in assay [2], over 1000 nM.

In the case of `FC(F)(F)c1ccc(-n2ccc3cc(CN4CCC5(CC4)COC5)cnc32)cn1` [Example 42, 7-((1-(6-(Trifluoromethyl)pyridin-3-yl)-1H-pyrrolo[2,3-b]pyridin-5-yl)methyl)-2-oxa-7-azaspiro[3.5]nonane], the Ki in assay [1] is under 100 nM; in assay [2] it was 100 to 500 nM.

With `FC(F)(F)c1cc(-c2cnn3cc(CN4CC5(CCOCC5)C4)cnc23)ccn1` [Example 33, 2-((3-(2-(Trifluoromethyl)pyridin-4-yl)pyrazolo[1,5-a]pyrimidin-6-yl)methyl)-7-oxa-2-azaspiro[3.5]nonane], the Ki in assay [1] is under 100 nM; in assay [2], over 1000 nM.

As to `COCC1CCN(Cc2cnc3c(-c4ccnc(C)c4)cnn3c2)CC1` [Example 25, 6-((4-(Methoxymethyl)piperidin-1-yl)methyl)-3-(2-methylpyridin-4-yl)pyrazolo[1,5-a]pyrimidine], the Ki in assay [1] was under 100 nM; in assay [2], over 1000 nM.

`COCC1CCN(Cc2cnc3c(-c4ccnc(C(F)(F)F)c4)cnn3c2)CC1` [Example 28, 6-((4-(Methoxymethyl)piperidin-1-yl)methyl)-3-(2-(trifluoromethyl)pyridin-4-yl)pyrazolo[1,5-a]pyrimidine]: the Ki was under 100 nM in assay [1] and 500 to 1000 nM in assay [2].

With `FC(F)(F)c1ccc(-c2cnn3cc(CN4CCC5(CC4)COC5)cnc23)cn1` [Example 13, 7-((3-(6-(Trifluoromethyl)pyridin-3-yl)pyrazolo[1,5-a]pyrimidin-6-yl)methyl)-2-oxa-7-azaspiro[3.5]nonane], the results for the Ki in assay [1] and in assay [2] were under 100 nM and 500 to 1000 nM, respectively.

As for `FC1(F)CCN(Cc2cnc3c(-c4ccnc(C(F)(F)F)c4)cnn3c2)CC1` [Example 11, 6-((4,4-Difluoropiperidin-1-yl)methyl)-3-(2-(trifluoromethyl)pyridin-4-yl)pyrazolo[1,5-a]pyrimidine], the Ki is 500 to 1000 nM in assay [1] and over 1000 nM in assay [2].

Take `FC(F)(F)c1cccc(-c2cnn3cc(CN4CCC5(CC4)COC5)cnc23)n1` [Example 14, 7-((3-(6-(Trifluoromethyl)pyridin-2-yl)pyrazolo[1,5-a]pyrimidin-6-yl)methyl)-2-oxa-7-azaspiro[3.5]nonane]: the values for the Ki in assay [1] and in assay [2] were under 100 nM and 500 to 1000 nM, respectively.

In the case of `Cc1cc(-c2cnn3cc(CN4CCC5(CC4)COC5)cnc23)ccn1` [Example 15, 7-((3-(2-Methylpyridin-4-yl)pyrazolo[1,5-a]pyrimidin-6-yl)methyl)-2-oxa-7-azaspiro[3.5]nonane], the values for the Ki in assay [1] and in assay [2] were under 100 nM and over 1000 nM, respectively.

Turning to `COC1CCN(Cc2cnc3c(ccn3-c3ccnc(C(F)(F)F)c3)c2)CC1` [Example 49, 5-((4-Methoxypiperidin-1-yl)methyl)-1-(2-(trifluoromethyl)pyridin-4-yl)-1H-pyrrolo[2,3-b]pyridine], the Ki is under 100 nM in assay [1] and 500 to 1000 nM in assay [2].

As to `Fc1cnccc1-c1cnn2cc(CN3CCC4(CCO4)CC3)cnc12` [Example 8, 7-((3-(3-Fluoropyridin-4-yl)pyrazolo[1,5-a]pyrimidin-6-yl)methyl)-1-oxa-7-azaspiro[3.5]nonane], the Ki is 500 to 1000 nM in assay [1] and over 1000 nM in assay [2].

`Cc1cc(-c2cnn3cc(CN4CCC5(CCOCC5)CC4)cnc23)ccn1` [Example 26, 9-((3-(2-Methylpyridin-4-yl)pyrazolo[1,5-a]pyrimidin-6-yl)methyl)-3-oxa-9-azaspiro[5.5]undecane]: the Ki in assay [1] was 100 to 500 nM; in assay [2], over 1000 nM.

On to `FC(F)(F)c1cc(-n2ncc3cc(CN4CCC5(CC4)COC5)cnc32)ccn1` [Example 58, 7-((1-(2-(Trifluoromethyl)pyridin-4-yl)-1H-pyrazolo[3,4-b]pyridin-5-yl)methyl)-2-oxa-7-azaspiro[3.5]nonane], for which the Ki is under 100 nM in assay [1] and 100 to 500 nM in assay [2].
